Results published in US5661136A, “2-halo-2'-fluoro ARA adenosines as antinoplastic agents” (priority 1994, dated 1997).

Legend:
[1] = target: T1, DNA polymerase α (Homo sapiens, UniProt P09884); conditions: incorporated 5'-monophosphate; cited from earlier work
T1 sequence (P09884 1-1462): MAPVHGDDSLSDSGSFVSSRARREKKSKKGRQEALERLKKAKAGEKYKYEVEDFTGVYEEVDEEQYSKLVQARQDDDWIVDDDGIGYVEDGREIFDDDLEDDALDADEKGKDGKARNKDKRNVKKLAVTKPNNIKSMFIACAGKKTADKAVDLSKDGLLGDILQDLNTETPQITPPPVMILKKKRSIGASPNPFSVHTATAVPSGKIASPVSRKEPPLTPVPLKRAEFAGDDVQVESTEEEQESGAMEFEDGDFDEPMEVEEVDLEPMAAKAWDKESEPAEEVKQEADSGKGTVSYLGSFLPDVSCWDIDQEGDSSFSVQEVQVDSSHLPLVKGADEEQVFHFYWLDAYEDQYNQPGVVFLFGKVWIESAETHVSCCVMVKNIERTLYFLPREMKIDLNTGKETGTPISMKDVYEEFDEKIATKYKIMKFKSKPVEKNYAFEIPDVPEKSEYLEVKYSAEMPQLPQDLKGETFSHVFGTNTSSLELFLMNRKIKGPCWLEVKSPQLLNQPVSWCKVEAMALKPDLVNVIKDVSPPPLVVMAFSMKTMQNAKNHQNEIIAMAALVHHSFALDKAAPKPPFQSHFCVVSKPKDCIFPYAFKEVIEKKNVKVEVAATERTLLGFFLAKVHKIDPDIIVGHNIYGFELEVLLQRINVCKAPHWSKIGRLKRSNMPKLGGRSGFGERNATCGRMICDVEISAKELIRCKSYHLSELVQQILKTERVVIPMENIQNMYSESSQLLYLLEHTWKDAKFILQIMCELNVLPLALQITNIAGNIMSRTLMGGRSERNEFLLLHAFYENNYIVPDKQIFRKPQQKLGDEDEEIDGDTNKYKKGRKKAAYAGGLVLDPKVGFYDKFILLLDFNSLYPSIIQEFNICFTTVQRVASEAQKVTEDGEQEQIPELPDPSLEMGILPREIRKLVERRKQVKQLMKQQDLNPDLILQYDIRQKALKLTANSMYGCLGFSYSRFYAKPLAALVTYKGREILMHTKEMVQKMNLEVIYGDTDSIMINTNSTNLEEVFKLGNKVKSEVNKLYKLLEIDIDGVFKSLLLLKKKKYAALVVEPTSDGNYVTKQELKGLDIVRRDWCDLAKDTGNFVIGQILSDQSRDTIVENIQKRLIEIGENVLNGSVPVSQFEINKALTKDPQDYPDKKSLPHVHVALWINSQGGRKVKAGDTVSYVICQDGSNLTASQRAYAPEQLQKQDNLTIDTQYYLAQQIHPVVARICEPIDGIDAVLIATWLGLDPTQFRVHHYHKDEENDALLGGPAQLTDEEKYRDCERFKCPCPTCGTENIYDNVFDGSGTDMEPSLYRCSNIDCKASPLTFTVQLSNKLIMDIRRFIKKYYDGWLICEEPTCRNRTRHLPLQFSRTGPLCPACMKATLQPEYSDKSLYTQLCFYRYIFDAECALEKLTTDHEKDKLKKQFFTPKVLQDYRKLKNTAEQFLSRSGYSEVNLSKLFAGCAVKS

[2] = tested on: HIV (strain IIIB); experiment: Activity against HIV in cell culture; type: cell-based; conditions: CEM or MT cell lines in culture

SMILES	inhibition of further elongation of the DNA chain after incorporation by DNA polymerase α [1]	activity against HIV (strain IIIB) [2]
Nc1nc(Cl)nc2c1ncn2[C@H]1C[C@H](O)[C@@H](COP(=O)(O)O)O1 [2-chloro-2'-deoxyadenosine 5'monophosphate]	did not inhibit the further elongation of the DNA chain to the degree that was seen with the incorporation of either	–
Nc1nc(F)nc2c1ncn2[C@@H]1O[C@H](CO)C[C@@H]1F [compound 4b, 2-Fluoro-9-(2-3-dideoxy-2-fluoro-β-D-arabinofuranosyl)-9H-purin-6-amine]	–	slight activity
